From ChEMBL document CHEMBL1201862, “PubChem BioAssay data set” (2004)
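96-well plates; 48 h exposure; 5 concentrations. Endpoints by linear interpolation between flanking doses. Not reached: highest tested concentration assigned. Here, GI50 denotes the concentration required for 50% inhibition of growth.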 Calls of active or inactive are those of the source. Cut-off read from the data, not from the text of the source: active = GI50 up to about 1.1 µM and inactive = higher.

Experiments:
Test in all cases: NCI-60 cell line screen, 48 h
HOP-62 = tested on: HOP-62
SNB-75 = tested on: SNB-75
ACHN = tested on: ACHN
IGROV-1 = tested on: IGROV-1
SN12C = tested on: SN12C
UACC-62 = tested on: UACC-62
SF-539 = tested on: SF-539
DU-145 = tested on: DU-145
SR = tested on: SR
SF-295 = tested on: SF-295
MDA-N = tested on: MDA-N
HT-29 = tested on: HT-29
HCC 2998 = tested on: HCC 2998
RPMI-8226 = tested on: RPMI-8226
DMS-114 = tested on: DMS-114
MCF7 = tested on: MCF7
NCI-H460 = tested on: NCI-H460
SK-MEL-2 = tested on: SK-MEL-2
OVCAR-8 = tested on: OVCAR-8
M14 = tested on: M14

Measured: GI50

Nc1nc(-c2ccccc2)c(Cl)c(-c2cc(Cl)ccc2O)n1
inactive: HOP-62 14.9 µM | SNB-75 13.7 µM | ACHN 8.89 µM | IGROV-1 19.4 µM | SN12C 25.4 µM | UACC-62 50.8 µM | SF-539 25.1 µM | DU-145 11.1 µM | SR > 100 µM | SF-295 48.4 µM | MDA-N > 100 µM | HT-29 49.2 µM | HCC 2998 > 81.1 µM | RPMI-8226 > 86.7 µM | DMS-114 26.7 µM | MCF7 2.04 µM | NCI-H460 17 µM | SK-MEL-2 38.4 µM | OVCAR-8 14 µM | M14 > 100 µM
